Data set [1] deals with T1, Multidrug resistance protein HmrM (Haemophilus influenzae) (UniProt P45272).
T1 sequence (whole entry): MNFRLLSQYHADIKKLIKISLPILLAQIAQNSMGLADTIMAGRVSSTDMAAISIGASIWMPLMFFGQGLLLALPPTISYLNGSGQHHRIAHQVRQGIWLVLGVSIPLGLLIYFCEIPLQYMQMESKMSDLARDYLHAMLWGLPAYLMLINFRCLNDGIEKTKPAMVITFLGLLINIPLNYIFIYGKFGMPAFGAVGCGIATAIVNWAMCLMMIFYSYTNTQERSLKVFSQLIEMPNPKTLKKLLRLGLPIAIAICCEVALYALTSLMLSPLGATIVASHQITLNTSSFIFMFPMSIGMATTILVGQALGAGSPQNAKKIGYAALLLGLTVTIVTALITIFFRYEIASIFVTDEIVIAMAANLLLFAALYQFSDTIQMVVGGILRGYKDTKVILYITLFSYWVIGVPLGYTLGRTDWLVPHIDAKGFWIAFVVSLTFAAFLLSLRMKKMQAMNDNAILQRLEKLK
In words: Inhibition of Haemophilus influenza HmrM transporter expressed in Escherichia coli KAM32 assessed as inhibition of bacterial resistance to norfloxacin by measuring reduction in bacterial growth at 100 uM incubated for 18 hrs by microbroth dilution method. (Dilution methods test growth across graded concentrations, often in twofold steps.)

Data set [2] deals with T1, Multidrug resistance protein HmrM (Haemophilus influenzae). In words: Inhibition of Haemophilus influenza HmrM transporter expressed in Escherichia coli KAM32 assessed as inhibition of bacterial resistance to norfloxacin by measuring norfloxacin MIC at 100 uM incubated for 18 hrs by microbroth dilution method.
For data set [3], the target named is T2, Multidrug and toxin extrusion protein 1 (Homo sapiens, UniProt Q96FL8).
T2 sequence (Q96FL8 whole entry): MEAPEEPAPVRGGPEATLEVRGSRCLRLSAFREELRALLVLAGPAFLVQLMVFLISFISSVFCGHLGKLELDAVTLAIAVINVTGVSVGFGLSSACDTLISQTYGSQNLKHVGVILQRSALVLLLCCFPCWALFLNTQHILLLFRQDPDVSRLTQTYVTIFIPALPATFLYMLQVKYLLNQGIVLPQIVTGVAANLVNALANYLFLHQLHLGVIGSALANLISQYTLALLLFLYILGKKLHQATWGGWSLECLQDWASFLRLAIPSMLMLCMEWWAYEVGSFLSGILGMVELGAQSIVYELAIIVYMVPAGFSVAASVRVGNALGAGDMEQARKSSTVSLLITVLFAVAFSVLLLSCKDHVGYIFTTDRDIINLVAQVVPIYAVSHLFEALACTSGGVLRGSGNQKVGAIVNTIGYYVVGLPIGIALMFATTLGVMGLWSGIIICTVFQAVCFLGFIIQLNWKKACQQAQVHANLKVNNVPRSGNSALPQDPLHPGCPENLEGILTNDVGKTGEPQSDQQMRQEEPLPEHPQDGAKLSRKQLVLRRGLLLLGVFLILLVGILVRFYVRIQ
In words: Inhibition of human MATE1. Format: toxicity.

Data set [4] has as its system Bacteroides thetaiotaomicron. As to the kind of experiment: Inhibition of Bacteroides thetaiotaomicron BexA expressed in Escherichia coli KAM32 assessed as inhibition of bacterial growth incubated for 18 hrs by microbroth dilution method.
Data set [5] has as its target T3, Multidrug resistance protein MdtK (Escherichia coli (strain K12)) (UniProt P37340).
T3 sequence (whole entry): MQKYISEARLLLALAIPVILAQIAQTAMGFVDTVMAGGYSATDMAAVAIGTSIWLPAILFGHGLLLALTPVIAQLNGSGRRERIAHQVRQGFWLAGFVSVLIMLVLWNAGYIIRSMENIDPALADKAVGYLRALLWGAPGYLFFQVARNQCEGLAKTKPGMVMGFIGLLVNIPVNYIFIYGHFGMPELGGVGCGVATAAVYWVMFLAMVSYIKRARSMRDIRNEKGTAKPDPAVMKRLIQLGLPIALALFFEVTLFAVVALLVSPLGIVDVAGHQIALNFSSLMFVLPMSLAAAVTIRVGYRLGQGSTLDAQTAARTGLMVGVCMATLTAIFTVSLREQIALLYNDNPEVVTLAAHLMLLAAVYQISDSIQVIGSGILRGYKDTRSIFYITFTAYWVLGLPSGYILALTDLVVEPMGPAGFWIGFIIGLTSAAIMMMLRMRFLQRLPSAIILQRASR
As to the kind of experiment: Inhibition of Escherichia coli MdtK expressed in Escherichia coli KAM32 assessed as inhibition of bacterial growth incubated for 18 hrs by microbroth dilution method.

For the next data set, the system named is HEK293. In words: Cytotoxicity against human HEK293 cells assessed as reduction in cell viability upto 300 uM incubated for 24 hrs by MTT assay. The data set is classed as toxicity, cell-based. Particulars: hek293, 24 h. On the technique in general: Tetrazolium dyes change colour on reduction, which living cells bring about.

Molecules are shown by their SMILES. Values after ≈ are worked out from the molar mass of the structure shown. A value given as a limit tells only on which side of the number the result lay.

As a reminder, the IC50 is the concentration that gives 50% inhibition. The low end stands for greater potency in that assay, the high end for weaker potency in that assay.

`CN/C(=N\C#N)NCCc1cccc(F)c1`: the Efficacy in data set [1] stood at 17%. In data set [2], the MIC amounted to 0.056 µg/mL (≈ 0.254 µM).
`CN/C(=N\C#N)NCCSCc1cccc(F)c1`: in data set [1], the Efficacy is 67%. The MIC in data set [2] is 0.032 µg/mL (≈ 0.12 µM). This compound also showed a half-maximal inhibitory concentration (IC50) in data set [3] greater than 100 µM.
Consider `CS/C(=N\C#N)NCCSCc1cccc(F)c1`, for which the Efficacy in data set [1] was 67%. In data set [2], the MIC turned out to be 0.032 µg/mL (≈ 0.113 µM).
The matching figures for `CN/C(=N\CCSCc1nc[nH]c1C)NC#N`: 17% and 0.056 µg/mL (≈ 0.222 µM).
As to `CN/C(=N\C#N)NCCCCc1cccc(F)c1`, the Efficacy is 83% in data set [1], 0% in data set [4] and 57% in data set [5]. For the same compound, the MIC in data set [2] amounted to 0.024 µg/mL (≈ 0.0967 µM).
For `CN/C(=N\C#N)NCCSCCc1cccc(F)c1`, in that order: 75%, 0%, 57% and 0.028 µg/mL (≈ 0.0999 µM).
In the case of `CN/C(=N\C#N)NCCOCc1cccc(F)c1`, the Efficacy in data set [1] came to 17%. For the same compound, in data set [2], the MIC is 0.056 µg/mL (≈ 0.224 µM).
As for `CN/C(=N\C#N)NCCSCc1cccc([N+](=O)[O-])c1`, the Efficacy in data set [1] came out at 67%. In addition, in data set [2], the MIC was 0.032 µg/mL (≈ 0.109 µM).
Take `N=C(N)NCCSCc1cccc(F)c1`: in data set [1], the Efficacy was 33%. In data set [2], the MIC was determined as 0.048 µg/mL (≈ 0.211 µM).
The matching figures for `NCCSCc1cccc(F)c1`: 50% and 0.04 µg/mL (≈ 0.216 µM).
For `CN/C(=N\C#N)NCCCc1cccc(F)c1`, in that order: 50% and 0.04 µg/mL (≈ 0.171 µM).
For `CN/C(=N\C#N)NCCSCc1cc(F)cc(F)c1`, in that order: 50% and 0.04 µg/mL (≈ 0.141 µM).
For the compound `CN/C(=N\C#N)NCCSCc1ccc(F)c(F)c1`, the Efficacy in data set [1] was 33%. Further, the MIC in data set [2] was 0.048 µg/mL (≈ 0.169 µM).
For `CN/C(=N\C#N)NCCSCc1cccc(C(F)(F)F)c1`, in that order: 33% and 0.048 µg/mL (≈ 0.152 µM).
With `Fc1cccc(CSCCNc2ncccn2)c1`, in data set [1], the Efficacy turned out to be 17%. In data set [2], the MIC was 0.056 µg/mL (≈ 0.213 µM).
In data set [3], `Cc1[nH]cnc1CSCCNc1ncccn1` returned a half-maximal inhibitory concentration (IC50) of 2 µM.
With `CN/C(=N\C#N)NCCCCCc1cccc(F)c1`, the Efficacy in data set [1] amounted to 92%; in data set [4] it was 0%; in data set [5], 86%. Besides, the Activity result with HEK293 is “Non-Toxic”. For the same compound, in data set [2], the MIC was 0.02 µg/mL (≈ 0.0762 µM). The compound also gave a 50% inhibitory concentration (IC50) in data set [3] greater than 100 µM.
Regarding `CN/C(=N\C#N)NCCSCc1ccc(F)cc1`, the Efficacy in data set [1] was 33%. For the same compound, the MIC in data set [2] is 0.048 µg/mL (≈ 0.18 µM).
The matching figures for `CN/C(=N\C#N)NCCSCc1cccc(OC)c1`: 50% and 0.04 µg/mL (≈ 0.144 µM).
For the compound `CN/C(=N\C#N)NCCSCc1ccccc1`, the Efficacy in data set [1] turned out to be 17%. Also, the MIC in data set [2] worked out at 0.056 µg/mL (≈ 0.225 µM). Also, the IC50 in data set [3] was greater than 100 µM.
Consider `CN/C(=N\C#N)NCCSCc1ccccc1F`, for which the Efficacy in data set [1] amounted to 50%. Also, the MIC in data set [2] turned out to be 0.04 µg/mL (≈ 0.15 µM).

The values are drawn from ChEMBL document CHEMBL5096211, “Fluorophenylalkyl-substituted cyanoguanidine derivatives as bacteria-selective MATE transporter inhibitors for the treatment of antibiotic-resistant infections” (Bioorg Med Chem, 2022).
